Test results as given in patent US20040074621A1, “Method for reducing slime production and mixture making the same” (Yuen Foong Yu Paper MFG Co., Ltd., priority 2002, published 2004).

Key:
[1] = tested on: culture isolated from the slime; assay: The effect of the antagonistic and the dispersing agent on the formation of the deposit; type: cell-based; details: after 7 days
Method: Cultures which are isolated from the slime are cultivated in a NB cultivation liquid for 21-24 hours. Then, 1 mL culture liquids of the isolated cultures are centrifuged in 15000 rpm for 1 min and the supernatants thereof are removed. All the isolated cultures are re-suspended by adding 1 mL sterile water, and then each re-suspended culture is inoculated into a flask which already contains sterile white water 100 mL and 3 g LBKP pulp. Later, different dispersing agents are added into different flasks of each kind of culture to obtain different mixtures. The mixtures are cultivated in an incubate shaker at 40° C. 70 rpm. After being mixture cultivated for 3 hours, 3 mL antagonistic C5 (Streptomyces bikiniensis) which has been amounted to 10^7/mL after being cultivated for 24 hours is added thereinto to obtain another mixture. The mixture are cultivated in the incubate shaker again at 40° C., 70 rpm. After 7 days, the production of the deposit is recorded. The whole experiment is separated into six groups. […] There are four experimental group: 3: Only incubate the culture isolated from the slime without incubating the antagonistic C5; 4: Incubate both the culture isolated from the slime and the antagonistic C5; 5: Incubate the culture isolated from the slime and the dispersing agent; and 6: Incubate the culture isolated from the slime, the dispersing agent, and the antagonistic C5. The groups described above are double checked and all experiments are repeated at least once. Deposit % is calculated by the formula as follows: [formula]

[2] = tested on: culture isolated from the slime; assay: The track experiment of periodically adding the antagonistic; type: cell-based
Method: Cultures which are isolated from the slime are cultivated in a NB cultivation liquid for 21-24 hours. Then, 1 mL culture liquids of the isolated cultures are centrifuged in 15000 rpm for 1 min and the supernatants thereof are removed. All the isolated cultures are re-suspended by adding 1 mL sterile water, and then each re-suspended culture is inoculated into a flask which already contains sterile white water 100 mL and 3 g LBKP pulp. Later, different dispersing agents are added into different flasks of each kind of culture to obtain different mixtures. The mixtures are cultivated in an incubate shaker at 40° C. 70 rpm. After being mixture cultivated for 3 hours, 3 mL antagonistic C5 (Streptomyces bikiniensis) which has been amounted to 10^7/L after being cultivated for 24 hours is added thereinto to obtain another mixture. The mixture are cultivated in the incubate shaker again at 40° C. 70 rpm. […] Then, the final deposit amount after another 7 days (total 14 days) is also recorded. The whole experiment is separated into four groups. […] There are two experimental group: 3: Only incubate the culture isolated from the slime without incubating the antagonistic C5; and 4: Incubate both the culture isolated from the slime and the antagonistic C5. The groups described above are double checked and all experiments are repeated at least once. Deposit % is calculated by the formula as follows: [formula]

[3] = isolated culture in sterile white water 100 mL + 3 g LBKP pulp, 40° C. 70 rpm, culture isolated from slime alone = 100%
[4] = contrast group: only antagonistic C5, without the culture isolated from the slime

Substance | Deposit (%) of the slime [1, 3] [%] | Deposit % (Day 7) [2, 4] [%] | Deposit % (Day 14) [2, 4] [%] | Deposit % (Day 14) ([2]; culture isolated from slime + antagonistic C5, antagonistic C5 re-added at Day 7) [%] | Deposit % (Day 14) ([2]; culture isolated from slime + antagonistic C5 added once, not re-added, culture alone = 100%) [%] | Deposit % (Day 7) ([2]; culture isolated from slime + antagonistic C5 added once, culture alone = 100%) [%] | Deposit (%) of the slime [1, 4] [%]
Di-alkyl sulfosuccinate [dispersing agent S100] | 53 |  |  |  |  |  | 
Streptomyces bikiniensis [Antagonistic C5] | 53.0 | 31.0 | 35.0 | 28 | 87 | 29 | 24.7
